Consider 30 compounds from patent publication US20260092074A1, “Annelated Pyridines as Steroidogenesis Inhibitors, Preparation Method and Use Thereof” (Guangzhou Vinnocent Pharmaceutical Limited, priority 2022, published 2026).

One experiment deals with T1, human CYP11B1 (Homo sapiens, UniProt P15538).
T1 construct: expressed in transfected cells
T1 sequence (P15538 25-503): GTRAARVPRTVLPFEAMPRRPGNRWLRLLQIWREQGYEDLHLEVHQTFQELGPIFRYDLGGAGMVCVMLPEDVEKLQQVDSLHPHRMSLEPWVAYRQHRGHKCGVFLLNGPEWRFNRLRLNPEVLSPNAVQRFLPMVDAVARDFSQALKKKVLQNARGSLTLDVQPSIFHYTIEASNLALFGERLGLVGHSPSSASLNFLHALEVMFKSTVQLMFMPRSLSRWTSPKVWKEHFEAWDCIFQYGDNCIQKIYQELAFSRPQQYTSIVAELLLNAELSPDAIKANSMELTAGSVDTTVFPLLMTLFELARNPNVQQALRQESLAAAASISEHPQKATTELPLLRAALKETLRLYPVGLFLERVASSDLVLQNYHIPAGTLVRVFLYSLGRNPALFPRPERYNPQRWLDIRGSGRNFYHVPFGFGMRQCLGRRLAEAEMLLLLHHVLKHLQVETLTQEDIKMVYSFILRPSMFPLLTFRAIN
As to the kind of experiment: Inhibition of hCYP11B1 in transfected V79 cells. The note with it: hamster V79 cells expressing human CYP11B1; substrate 11-deoxycortisol 200 nM. The experiment is classed as cell-based. A digest of the protocol:
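V79 hamster cells stably expressing human CYP11B1 and rat NADPH-P450 reductase were preincubated with compounds for 2 h. 11-Deoxycortisol (200 nM) was then added as substrate for 30 min before ethyl acetate quench. Substrate and product were quantified by LC-MS/MS or HPLC at 260 nm, and IC50 was derived from percent inhibition.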

A further experiment deals with T2, human CYP11B2 (Homo sapiens, UniProt P19099).
T2 construct: expressed in transfected cells
T2 sequence (P19099 25-503): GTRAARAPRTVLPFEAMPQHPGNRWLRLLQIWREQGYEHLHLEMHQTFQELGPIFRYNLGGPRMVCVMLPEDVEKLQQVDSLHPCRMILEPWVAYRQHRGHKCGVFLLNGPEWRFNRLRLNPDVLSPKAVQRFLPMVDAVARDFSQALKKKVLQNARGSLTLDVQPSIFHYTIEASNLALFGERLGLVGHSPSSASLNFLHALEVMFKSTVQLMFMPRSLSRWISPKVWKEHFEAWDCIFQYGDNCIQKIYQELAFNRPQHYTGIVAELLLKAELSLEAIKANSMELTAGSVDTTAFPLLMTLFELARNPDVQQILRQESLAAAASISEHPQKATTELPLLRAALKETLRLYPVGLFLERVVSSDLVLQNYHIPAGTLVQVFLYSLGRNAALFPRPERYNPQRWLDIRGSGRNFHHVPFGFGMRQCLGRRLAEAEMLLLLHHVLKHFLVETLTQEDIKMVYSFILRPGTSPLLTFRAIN
As to the kind of experiment: Inhibition of hCYP11B2 in transfected V79 cells. The experiment is classed as cell-based. As to conditions: hamster V79 cells expressing human CYP11B2; substrate 11-deoxycorticosterone 200 nM. An outline of the steps:
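Hamster V79 cells stably co-expressing human CYP11B2 and rat NADPH-P450 reductase were pre-incubated with compounds for 2 hours, then given 200 nM 11-deoxycorticosterone for 30 minutes before ethyl acetate quench. Substrate and product were quantified by LC-MS/MS or HPLC at 260 nm, and IC50 was derived from percent inhibition.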

Take `COc1cccc(C(=O)N2CCc3c(C4=CCN(C#N)CC4)cncc32)c1` [C82, 4-(1-(3-Methoxybenzoyl)-2,3-dihydro-1H-pyrrolo[2,3-c]pyridin-4-yl)-3,6-dihydropyridine-1 (2H)-carbonitrile]: the half-maximal inhibitory concentration (IC50) (commonly the point on the concentration scale where inhibition reaches its midpoint) on human CYP11B1 is 537 nM; on human CYP11B2, 3 nM.

Regarding `COc1cccc(C(=O)N2CCc3c(N4CCN(C#N)CC4)cncc32)c1` [C83, 4-(1-(3-Methoxybenzoyl)-2,3-dihydro-1H-pyrrolo[2,3-c]pyridin-4-yl)piperazine-1-carbonitrile], the IC50 stood at 672 nM against human CYP11B1 and 6 nM at human CYP11B2.

With `N#Cc1ccc(-c2cncc3c2ccn3S(=O)(=O)c2ccc([N+](=O)[O-])cc2)cc1` [E1, 4-(1-((4-Nitrophenyl)sulfonyl)-1H-pyrrolo[2,3-c]pyridin-4-yl)benzonitrile], the IC50 against human CYP11B1 and at human CYP11B2 was 0.5 nM throughout.

Consider `Cc1ccc(S(=O)(=O)n2ccc3c(-c4ccc(C#N)cc4)cncc32)cc1` [E2, 4-(1-Tosyl-1H-pyrrolo[2,3-c]pyridin-4-yl)benzonitrile], for which the IC50 against human CYP11B1 came to 0.4 nM; on human CYP11B2, 0.5 nM.

With `N#Cc1ccc(-c2cncc3c2ccn3S(=O)(=O)c2ccccc2)cc1` [E3, 4-(1-(Phenylsulfonyl)-1H-pyrrolo[2,3-c]pyridin-4-yl)benzonitrile], the IC50 at human CYP11B1 amounted to 0.3 nM; against human CYP11B2, 0.4 nM.

As for `Cc1cccc(S(=O)(=O)n2ccc3c(-c4ccc(C#N)cc4)cncc32)c1` [E4, 4-(1-(m-Tolylsulfonyl)-1H-pyrrolo[2,3-c]pyridin-4-yl)benzonitrile], the IC50 against human CYP11B1 amounted to 0.3 nM; against human CYP11B2 it was 0.4 nM.

With `N#Cc1ccc(-c2cncc3c2ccn3S(=O)(=O)c2cccc(C(F)(F)F)c2)cc1` [E5, 4-(1-((3-(Trifluoromethyl)phenyl)sulfonyl)-1H-pyrrolo[2,3-c]pyridin-4-yl)benzonitrile], the values for the IC50 against human CYP11B1 and against human CYP11B2 were 0.6 nM and 0.3 nM, respectively.

For `N#Cc1ccc(-c2cncc3c2ccn3S(=O)(=O)c2ccc(F)cc2)cc1` [E6, 4-(1-((4-Fluorophenyl)sulfonyl)-1H-pyrrolo[2,3-c]pyridin-4-yl)benzonitrile], the figures for the IC50 against human CYP11B1 and against human CYP11B2 were 0.3 nM and 0.13 nM, respectively.

For the compound `N#Cc1ccc(-c2cncc3c2ccn3S(=O)(=O)c2ccc(C(F)(F)F)cc2)cc1` [E7, 4-(1-((4-(Trifluoromethyl)phenyl)sulfonyl)-1H-pyrrolo[2,3-c]pyridin-4-yl)benzonitrile], the IC50 turned out to be 0.2 nM on human CYP11B1 and 0.1 nM against human CYP11B2.

Regarding `N#Cc1ccc(-c2cncc3c2ccn3S(=O)(=O)c2ccc(Cl)cc2)cc1` [E8, 4-(1-((4-Chlorophenyl)sulfonyl)-1H-pyrrolo[2,3-c]pyridin-4-yl)benzonitrile], the IC50 against human CYP11B1 was 0.6 nM; on human CYP11B2, 0.1 nM.

As to `COc1ccc(S(=O)(=O)n2ccc3c(-c4ccc(C#N)cc4)cncc32)cc1` [E9, 4-(1-((4-Methoxyphenyl)sulfonyl)-1H-pyrrolo[2,3-c]pyridin-4-yl)benzonitrile], the IC50 at human CYP11B1 turned out to be 0.3 nM; against human CYP11B2, 0.1 nM.

With `N#Cc1ccc(-c2cncc3c2ccn3S(=O)(=O)c2cccc(C#N)c2)cc1` [E10, 3-((4-(4-Cyanophenyl)-1H-pyrrolo[2,3-c]pyridin-1-yl)sulfonyl)benzonitrile], the IC50 at human CYP11B1 was found to be 0.3 nM; at human CYP11B2 it was 0.6 nM.

Consider `N#Cc1ccc(-c2cncc3c2ccn3S(=O)(=O)c2cccc(Cl)c2)cc1` [E11, 4-(1-((3-Chlorophenyl)sulfonyl)-1H-pyrrolo[2,3-c]pyridin-4-yl)benzonitrile], for which the IC50 at human CYP11B1 was 0.2 nM; on human CYP11B2, 0.1 nM.

In the case of `N#Cc1ccc(-c2cncc3c2ccn3S(=O)(=O)c2cccc(F)c2)cc1` [E12, 4-(1-((3-Fluorophenyl)sulfonyl)-1H-pyrrolo[2,3-c]pyridin-4-yl)benzonitrile], the IC50 stood at 0.5 nM against human CYP11B1 and 0.3 nM on human CYP11B2.

For `N#Cc1ccc(-c2cncc3c2ccn3S(=O)(=O)c2cccc([N+](=O)[O-])c2)cc1` [E13, 4-(1-((3-Nitrophenyl)sulfonyl)-1H-pyrrolo[2,3-c]pyridin-4-yl)benzonitrile], the IC50 on human CYP11B1 was determined as 0.5 nM; against human CYP11B2, 0.3 nM.

With `N#Cc1ccc(-c2cncc3c2ccn3S(=O)(=O)c2ccc(C#N)cc2)cc1` [E14, 4-((4-(4-Cyanophenyl)-1H-pyrrolo[2,3-c]pyridin-1-yl)sulfonyl)benzonitrile], the concentration for half-maximal inhibition (IC50) against human CYP11B1 is 0.5 nM; on human CYP11B2, 0.08 nM.

Turning to `N#Cc1ccc(-c2cncc3c2ccn3S(=O)(=O)c2cccc3ccccc23)cc1` [E15, 4-(1-(Naphthalen-1-ylsulfonyl)-1H-pyrrolo[2,3-c]pyridin-4-yl)benzonitrile], the IC50 came to 0.7 nM against human CYP11B1 and 0.4 nM against human CYP11B2.

Consider `N#Cc1ccc(-c2cncc3c2ccn3S(=O)(=O)c2ccc3ccccc3c2)cc1` [E16, 4-(1-(Naphthalen-2-ylsulfonyl)-1H-pyrrolo[2,3-c]pyridin-4-yl)benzonitrile], for which the results for the IC50 at human CYP11B1 and against human CYP11B2 were 0.6 nM and 0.1 nM, respectively.

For the compound `N#Cc1ccc(-c2cncc3c2ccn3S(=O)(=O)c2cccs2)cc1` [E17, 4-(1-(Thiophen-2-ylsulfonyl)-1H-pyrrolo[2,3-c]pyridin-4-yl)benzonitrile], the IC50 on human CYP11B1 worked out at 0.7 nM; against human CYP11B2, 0.1 nM.

Turning to `N#Cc1ccc(-c2cncc3c2ccn3S(=O)(=O)c2ccc(Cl)nc2)cc1` [E18, 4-(1-((6-Chloropyridin-3-yl)sulfonyl)-1H-pyrrolo[2,3-c]pyridin-4-yl)benzonitrile], the IC50 at human CYP11B1 worked out at 3.8 nM; against human CYP11B2, 1.2 nM.

In the case of `N#Cc1ccc(-c2cncc3c2ccn3C(=O)c2c(F)c(F)c(F)c(F)c2F)cc1` [E19, 4-(1-(Perfluorobenzoyl)-1H-pyrrolo[2,3-c]pyridin-4-yl)benzonitrile], the IC50 at human CYP11B1 is 2.9 nM; at human CYP11B2, 2.5 nM.

With `N#Cc1ccc(-c2cncc3c2ccn3C(=O)c2ccc(C(F)(F)F)cc2)cc1` [E20, 4-(1-(4-(Trifluoromethyl)benzoyl)-1H-pyrrolo[2,3-c]pyridin-4-yl)benzonitrile], the IC50 on human CYP11B1 came to 65 nM; at human CYP11B2, 0.8 nM.

In the case of `N#Cc1ccc(-c2cncc3c2ccn3C(=O)c2ccccc2I)cc1` [E21, 4-(1-(2-iodobenzoyl)-1H-pyrrolo[2,3-c]pyridin-4-yl)benzonitrile], the 50% inhibitory concentration (IC50) against human CYP11B1 is 5 nM; against human CYP11B2 it was 4 nM.

For the compound `N#Cc1ccc(-c2cncc3c2ccn3C(=O)c2cccc([N+](=O)[O-])c2)cc1` [E22, 4-(1-(3-Nitrobenzoyl)-1H-pyrrolo[2,3-c]pyridin-4-yl)benzonitrile], the half-maximal inhibitory concentration (IC50) at human CYP11B1 turned out to be 21 nM; against human CYP11B2 it was 0.6 nM.

For the compound `N#Cc1ccc(-c2cncc3c2ccn3C(=O)c2cccc(C(F)(F)F)c2)cc1` [E23, 4-(1-(3-(Trifluoromethyl)benzoyl)-1H-pyrrolo[2,3-c]pyridin-4-yl)benzonitrile], the IC50 on human CYP11B1 was 79 nM; against human CYP11B2, 0.8 nM.

For `COc1cccc(C(=O)n2ccc3c(-c4ccc(C#N)cc4)cncc32)c1` [E24, 4-(1-(3-Methoxybenzoyl)-1H-pyrrolo[2,3-c]pyridin-4-yl)benzonitrile], the values for the half-maximal inhibitory concentration (IC50) at human CYP11B1 and at human CYP11B2 were 82 nM and 1.9 nM, respectively.

As for `COc1ccccc1C(=O)n1ccc2c(-c3ccc(C#N)cc3)cncc21` [E25, 4-(1-(2-Methoxybenzoyl)-1H-pyrrolo[2,3-c]pyridin-4-yl)benzonitrile], the IC50 against human CYP11B1 was found to be 98 nM; at human CYP11B2, 2.1 nM.

`N#Cc1ccc(-c2cncc3c2ccn3C(=O)c2ccccc2C(F)(F)F)cc1` [E26, 4-(1-(2-(Trifluoromethyl)benzoyl)-1H-pyrrolo[2,3-c]pyridin-4-yl)benzonitrile]: the results for the IC50 against human CYP11B1 and on human CYP11B2 were 88 nM and 3.9 nM, respectively.

Consider `Cc1ccccc1C(=O)n1ccc2c(-c3ccc(C#N)cc3)cncc21` [E27, 4-(1-(2-Methylbenzoyl)-1H-pyrrolo[2,3-c]pyridin-4-yl)benzonitrile], for which the results for the IC50 against human CYP11B1 and on human CYP11B2 were 73 nM and 1.5 nM, respectively.

As to `N#Cc1ccc(-c2cncc3c2ccn3C(=O)c2ccccc2F)cc1` [E28, 4-(1-(2-Fluorobenzoyl)-1H-pyrrolo[2,3-c]pyridin-4-yl)benzonitrile], the IC50 on human CYP11B1 came to 17 nM; on human CYP11B2, 2.1 nM.
